According to DBAASP:
In brackets after ≈: the same amount, converted by molar mass.

Legend:
Test in all cases: ≥ marks a high value that may be exact or a test limit, other limits are often not marked, values filed in µg/mL are converted to µM
[1] = system: Staphylococcus aureus ATCC 25923
[2] = system: Staphylococcus aureus CIB 85462
[3] = system: Candida albicans CIB 45437
[4] = system: Escherichia coli CIB 84492
[5] = system: Escherichia coli ATCC 25922
[6] = system: Bordetella bronchiseptica CUN 11844-99
[7] = system: Pseudomonas aeruginosa ATCC 27853
[8] = system: Stenotrophomonas maltophilia CUN 3998-00
[9] = system: Pseudomonas aeruginosa CUN 4158-02
[10] = system: Acinetobacter baumannii ATCC 19606
[11] = system: Staphylococcus aureus CUN 3792-99
[12] = system: Staphylococcus aureus ATCC 43300
[13] = system: Batrachochytrium dendrobatidis JEL-197
[14] = system: Escherichia coli ATCC 25726
[15] = system: Klebsiella pneumoniae ATCC 700603
[16] = system: Acinetobacter baumannii I NM8
Bacillus cereus = system: Bacillus cereus
[17] = system: Streptococcus mutans CGMCC 1.2500
[18] = system: Lactococcus lactis AS1.1690
[19] = system: Streptococcus sanguinis CGMCC 1.2497
[20] = system: Staphylococcus aureus AS1.72
[21] = system: Streptococcus salivarius CGMCC 1.2498
Staphylococcus aureus = system: Staphylococcus aureus
Lactococcus lactis = system: Lactococcus lactis
[22] = system: Pseudomonas aeruginosa CGMCC 1.860
[23] = system: Escherichia coli ATCC 11775
Bacillus cereus AS1.126 = system: Bacillus cereus AS1.126
[24] = system: Candida albicans CMCC 98001
[25] = system: Enterococcus faecalis CGMCC 1.595
[26] = system: Fusobacterium nucleatum CGMCC 1.2526
[27] = system: Klebsiella pneumoniae subsp. pneumoniae CGMCC 1.176
[28] = system: Enterobacter cloacae CGMCC 1.58
Escherichia coli AS1.349 = system: Escherichia coli AS1.349
[29] = system: Klebsiella aerogenes CGMCC 1.876
Escherichia coli = system: Escherichia coli
[30] = system: Enterococcus faecium CGMCC 1.2334
[31] = system: Lactobacillus acidophilus CGMCC 1.1854
[32] = system: Staphylococcus aureus ATCC 12600
[33] = system: Enterobacter cloacae NHTCC 53001
[34] = system: Klebsiella pneumoniae KK3 9904
[35] = system: Staphylococcus aureus NCTC 8325
[36] = system: Candida albicans ATCC 90028

CC[C@H](C)[C@@H]1NC(=O)[C@H](C)NC(=O)[C@@H](NC(=O)[C@H](Cc2ccccc2)NC(=O)[C@@H](NC(=O)[C@@H](NC(=O)[C@@H]2CCCN2C(=O)[C@H](CC(C)C)NC(=O)[C@@H](NC(=O)[C@H](CC(N)=O)NC(=O)[C@H](C)NC(=O)[C@H](C)NC(=O)[C@@H](NC(=O)[C@H](CCCN=C(N)N)NC(=O)[C@@H](NC(=O)[C@@H](NC(=O)[C@H](C)NC(=O)[C@@H]2CCCN2C(=O)[C@H](CC(C)C)NC(=O)[C@@H](N)Cc2ccccc2)C(C)C)[C@@H](C)CC)C(C)C)C(C)C)[C@@H](C)O)C(C)C)CSSC[C@@H](C(=O)O)NC(=O)[C@H](CCCCN)NC(=O)[C@H](CCCCN)NC(=O)[C@H](CO)NC1=O [FLPAVIRVAANVLPTVFCAISKKC]
MIC [1]: 6.25 µM (≈ 16 µg/mL)
MIC [2]: 12.5 µM (≈ 32 µg/mL)
MIC [3]: ≥ 50 µM
MIC [4]: 25 µM (≈ 64 µg/mL)
MIC [5]: 50 µM (≈ 128 µg/mL)

NCCCC[C@H](NC(=O)CNC(=O)[C@H](CCCCN)NC(=O)[C@H](Cc1ccccc1)NC(=O)[C@H](CCCCN)NC(=O)[C@H](Cc1c[nH]c2ccccc12)NC(=O)[C@H](Cc1ccccc1)NC(=O)[C@H](CCCN=C(N)N)NC(=O)[C@H](CCCN=C(N)N)NC(=O)[C@H](Cc1ccc(O)cc1)NC(=O)[C@H](CCCCN)NC(=O)[C@H](CCCCN)NC(=O)CN)C(=O)N[C@@H](Cc1c[nH]c2ccccc12)C(=O)N[C@@H](Cc1ccccc1)C(=O)N[C@@H](Cc1c[nH]c2ccccc12)C(=O)N[C@@H](Cc1ccccc1)C(=O)N[C@@H](Cc1c[nH]c2ccccc12)C(=O)NCC(N)=O [GKKYRRFWKFKGKWFWFWG]
MIC [1]: 388 µM (≈ 1020 µg/mL)
MIC [6]: 3.03 µM (≈ 8 µg/mL)
MIC [7]: 3.03 µM (≈ 8 µg/mL)
MIC [8]: 24.3 µM (≈ 64 µg/mL)
MIC [9]: 12.1 µM (≈ 32 µg/mL)
MIC [10]: 6.06 µM (≈ 16 µg/mL)
MIC [11]: 6.06 µM (≈ 16 µg/mL)
MIC [12]: 6.06 µM (≈ 16 µg/mL)
MIC [5]: 388 µM (≈ 1020 µg/mL)

CC[C@H](C)[C@H](NC(=O)CN)C(=O)N[C@@H](CC(C)C)C(=O)N[C@@H](CC(=O)O)C(=O)N[C@H](C(=O)N[C@@H](Cc1ccccc1)C(=O)N[C@@H](CCCCN)C(=O)NCC(=O)N[C@H](C(=O)N[C@@H](C)C(=O)N[C@@H](CCCCN)C(=O)NCC(=O)N[C@H](C(=O)N[C@@H](C)C(=O)N[C@@H](CCCCN)C(=O)N[C@@H](CC(=O)O)C(=O)N[C@@H](CC(C)C)C(=O)N[C@@H](C)C(=O)N[C@H](C(=O)N[C@@H](Cc1cnc[nH]1)C(=O)N[C@@H](CCSC)C(=O)N[C@@H](CC(C)C)C(=O)N[C@@H](CCC(=O)O)C(=O)N[C@@H](CC(N)=O)C(=O)N[C@@H](CC(C)C)C(=O)N[C@@H](CCCCN)C(=O)N[C@H]1CSSC[C@@H](C(=O)O)NC(=O)CNC(=O)[C@H]([C@@H](C)O)NC(=O)[C@H](CCSC)NC(=O)[C@H](CCCCN)NC1=O)C(C)C)C(C)C)C(C)C)[C@@H](C)O [GILDTFKGVAKGVAKDLAVHMLENLKCKMTGC]
MIC [13]: ≥ 50 µM
MIC [1]: 100 µM (≈ 339 µg/mL)
MIC [14]: ≥ 50 µM

CC(C)C[C@H](NC(=O)CNC(=O)CNC(=O)[C@H](CCCCN)NC(=O)[C@H](C)NC(=O)[C@H](Cc1ccccc1)NC(=O)[C@H](CCCCN)NC(=O)[C@H](CCCCN)NC(=O)[C@H](CC(C)C)NC(=O)CNC(=O)[C@H](CCC(=O)O)NC(=O)[C@H](CC(C)C)NC(=O)[C@H](C)NC(=O)[C@H](CO)NC(=O)[C@H](CO)NC(=O)[C@H](Cc1c[nH]c2ccccc12)NC(=O)[C@H](Cc1ccccc1)NC(=O)CN)C(=O)N[C@@H](CCC(=O)O)C(=O)N[C@@H](C)C(=O)N[C@@H](CC(C)C)C(=O)N[C@H](C(=O)N[C@@H](CC(N)=O)C(=O)N1CCC[C@H]1C(=O)N[C@@H](CCCCN)C(=O)O)[C@@H](C)O [GFWSSALEGLKKFAKGGLEALTNPK]
MIC [1]: > 100 µM
MIC [14]: ≥ 50 µM
MIC [15]: > 50 µM
MIC [16]: 12.5 µM (≈ 33.1 µg/mL)

CC[C@H](C)[C@H](N)C(=O)N[C@@H](CC(C)C)C(=O)N1CCC[C@H]1C(=O)N[C@H](C(=O)N[C@@H](CC(C)C)C(=O)N[C@@H](CO)C(=O)N[C@@H](CC(C)C)C(=O)N[C@H](C(=O)NCC(=O)NCC(=O)N[C@@H](CC(C)C)C(=O)N[C@@H](CC(C)C)C(N)=O)[C@@H](C)CC)[C@@H](C)CC [ILPILSLIGGLL]
MIC (Bacillus cereus): ≥ 41 µM
MIC [17]: ≥ 50 µM
MIC [18]: ≥ 62.5 µM
MIC [19]: ≥ 37.5 µM
MIC [20]: ≥ 62.5 µM
MIC [21]: ≥ 75 µM
MIC (Staphylococcus aureus): 41 µM (≈ 50 µg/mL)
MIC (Lactococcus lactis): ≥ 41 µM
MIC [22]: ≥ 125 µM
MIC [23]: ≥ 100 µM
MIC (Bacillus cereus AS1.126): ≥ 62.5 µM
MIC [24]: ≥ 50 µM
MIC [25]: ≥ 125 µM
MIC [26]: ≥ 75 µM
MIC [27]: ≥ 175 µM
MIC [28]: ≥ 250 µM
MIC (Escherichia coli AS1.349): ≥ 125 µM
MIC [29]: ≥ 250 µM
MIC (Escherichia coli): > 100 µM
MIC [30]: ≥ 125 µM
MIC [31]: ≥ 37.5 µM
MIC [32]: ≥ 100 µM

CC[C@H](C)[C@@H]1NC(=O)[C@H](CCCCN)NC(=O)[C@@H](NC(=O)[C@H](CCCCN)NC(=O)[C@H](C)NC(=O)[C@H](CCC(N)=O)NC(=O)[C@H](CC(=O)O)NC(=O)[C@H](CC(C)C)NC(=O)[C@H](CC(C)C)NC(=O)[C@H](CO)NC(=O)CNC(=O)CNC(=O)[C@@H](NC(=O)[C@H](CC(N)=O)NC(=O)[C@H](CCCCN)NC(=O)[C@H](Cc2ccccc2)NC(=O)[C@@H](NC(=O)[C@H](Cc2cnc[nH]2)NC(=O)[C@H](CCCCN)NC(=O)CNC(=O)[C@H](C)NC(=O)[C@@H](NC(=O)[C@H](CCCCN)NC(=O)[C@H](CC(C)C)NC(=O)[C@@H](NC(=O)CNC(=O)[C@H](CCCCN)NC(=O)[C@@H](NC(=O)[C@@H](NC(=O)[C@H](CO)NC(=O)[C@H](CCSC)NC(=O)[C@H](CC(C)C)NC(=O)CN)C(C)C)[C@@H](C)O)C(C)C)[C@@H](C)O)[C@@H](C)CC)C(C)C)CSSC[C@@H](C(=O)O)NC(=O)[C@H](CCC(N)=O)NC(=O)CNC(=O)[C@H](CO)NC1=O [GLMSVTKGVLKTAGKHIFKNVGGSLLDQAKCKISGQC]
MIC [33]: 6 µM (≈ 22.9 µg/mL)
MIC [34]: 12 µM (≈ 45.8 µg/mL)
MIC [35]: 25 µM (≈ 95.4 µg/mL)
MIC [7]: 6 µM (≈ 22.9 µg/mL)
MIC [36]: ≥ 100 µM
MIC [5]: 3 µM (≈ 11.4 µg/mL)
